# Laboratory results from patent publication US11358969B2, “Indole AHR inhibitors and uses thereof” (Ikena Oncology, Inc., priority 2017, dated 2022).
# Like-named read-outs stand apart in the source and are kept apart here.
# Assays:
# AHR [1] = molecular target: T1, AHR (UniProt P35869); assay: DRE-Luciferase Reporter Assay (Example 1A); type: cell-based, murine or human; details: cell line and AHR activating ligand not specified
# T1 construct: IC50
# T1 sequence (P35869 1-848): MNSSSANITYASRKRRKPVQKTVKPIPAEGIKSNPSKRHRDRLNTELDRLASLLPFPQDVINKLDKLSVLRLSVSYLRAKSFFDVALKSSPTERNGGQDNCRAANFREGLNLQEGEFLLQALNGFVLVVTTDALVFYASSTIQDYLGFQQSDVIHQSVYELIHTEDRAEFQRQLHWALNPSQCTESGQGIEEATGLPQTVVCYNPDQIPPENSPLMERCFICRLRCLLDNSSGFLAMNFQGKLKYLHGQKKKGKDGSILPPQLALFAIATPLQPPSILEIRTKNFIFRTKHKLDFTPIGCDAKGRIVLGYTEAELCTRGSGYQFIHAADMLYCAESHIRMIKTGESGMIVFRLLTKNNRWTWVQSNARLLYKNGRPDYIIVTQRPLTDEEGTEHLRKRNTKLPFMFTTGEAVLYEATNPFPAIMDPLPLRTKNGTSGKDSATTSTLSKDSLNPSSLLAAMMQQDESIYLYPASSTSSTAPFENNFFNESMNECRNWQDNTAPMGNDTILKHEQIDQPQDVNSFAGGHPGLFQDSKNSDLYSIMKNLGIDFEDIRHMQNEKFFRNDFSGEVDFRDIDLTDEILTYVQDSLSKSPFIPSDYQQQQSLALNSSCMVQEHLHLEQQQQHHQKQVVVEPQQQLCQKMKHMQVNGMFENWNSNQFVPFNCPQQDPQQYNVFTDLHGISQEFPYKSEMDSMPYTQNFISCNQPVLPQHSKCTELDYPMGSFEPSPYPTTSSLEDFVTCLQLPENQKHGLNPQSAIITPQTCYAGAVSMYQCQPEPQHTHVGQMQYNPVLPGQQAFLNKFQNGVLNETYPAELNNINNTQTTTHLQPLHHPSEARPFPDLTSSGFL
# Procedure: AHR binds to Dioxin Responsive Elements (DRE) upstream of genes that it activates. One measure of AHR activity is activation of a reporter gene, such as luciferase, downstream of one or multiple DRE elements. Luciferase activity will reflect activation and inhibition of AHR in the cells expressing his reporter.
# Murine Hepa1-6 or Hepa-1c1c7 or other murine cell line with a DRE-luciferase reporter either stably or transiently transfected were plated in media in plates (96-well, 384-well or other plates) and incubated overnight at 37° C. in a CO2 incubator. Likewise, human HepG2 or other human cell line with a DRE-luciferase reporter either stably or transiently transfected were plated in media in plates (96-well, 384-well or other plates) and incubated overnight at 37° C. in a CO2 incubator.
# The next day, an AHR activating ligand, such as TCDD, kynurenine, ITE (2-(1H-indole-3-ylcarbonyl)-4-thiazolecarboxylic methyl ester), VAF347, BNF (beta-naphthoflavone), FICZ (6-formylindolo(3,2-b) carbazole or other AHR ligands, was added with or without AHR antagonist.
# Cells were incubated for 4, 15 or 24 hours or another time point and then lysed for determination of luciferase activity as a read-out of the AHR activation or inhibition. Luciferase was measured with a commercial kit such as the Promega Luciferase kit or any kit or reagents that provide the luciferin substrate for measuring luciferase activity. The level of luciferase with only activating ligand added was the maximum signal while the luciferase with no ligand was the minimum signal. IC50 values were determined as the concentration which inhibits half of the luciferase activity.
# AHR [2] = molecular target: T1, AHR; assay: DRE-Luciferase Reporter Assay (Alternate Method) (Example 1B); type: cell-based, murine or human; details: cell line and AHR activating ligand not specified
# [3] = In Vitro Mouse liver S9 Metabolic Stability Assay (Example 1D); type: in vitro ADME; details: CD-1 mouse liver S9, 1 μM compound, 1 mg/mL S9 protein, 37° C., NADPH regenerating system, UDPGA, PAPS
# Summary of the method: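 Compound at 1 μM final (0.1% DMSO) incubated at 37° C with pooled CD-1 mouse liver S9 (1 mg/mL protein) plus NADPH-regenerating system, UDPGA and PAPS. Samples at 0 and 60 min quenched in cold acetonitrile with internal standard; LC-MS/MS analyte/IS peak-area ratios give % remaining at 60 min.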
# [4] = Mouse Pharmacokinetic Study (Example 1C); type: in vivo; details: mouse, plasma, CD-1 mice; for Vd: read-out: Vdss
# Summary of the method: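 CD-1 mice dosed intravenously or by oral gavage; plasma sampled at 0.167, 0.5, 1, 2, 4, 6, 12 and 24 h post-dose. Samples analyzed by LC/MS/MS (MRM, positive mode) against a plasma standard curve of 1.0–3000 ng/mL; PK parameters from non-compartmental analysis.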
# Cyp1a1 = assay: In Vivo Mouse liver and spleen Cyp1a1 Modulation Assay (Example 1E); design: species or system C57BL/6 mice; details: po, dose 30 mg/kg, with AHR agonist VAG539 30 mg/kg po, qPCR
# Procedure: C57BL/6 mice, female, 6-8 weeks old, weighing approximately 18-20 g were purchased from Shanghai Lingchang Biological Technology Co., Ltd or other certified vendors and used in the studies. Animal husbandry, feeding and health conditions are according to animal welfare guidelines. VAG539 (30 mg/kg, po) was used as AHRagonist, and test compounds were formulated in suitable vehicles, typically 0.5% methylcellulose).
# C57BL/6 mice (n=3 per group) were treated with AHR agonist alone or with AHR agonist and test compounds. Animals were sacrificed at 4 or 10 hours after treatment upon which their livers and spleens were collected and subsequently analyzed by qPCR. Normalized fold induction of cyp1a1 was determined by comparing mCYP1A1 and mGAPDH counts (ct) according to: normalized fold=2^−ΔΔCt. The percent inhibition was calculated according to: […]
# [5] = 4 h, read-out: Cyp1a1 inhibition, Liver, 4 h
smiles,measurement,setting,value
"CC(C)c1n[nH]c2c(NCCc3c[nH]c4ccccc34)nc(-c3cncc(F)c3)nc12 [I-1, 5-(5-Fluoro-3-pyridyl)-N-[2-(1H-indol-3-yl)ethyl]-3-isopropyl-1H-pyrazolo[4,3-d]pyrimidin-7-amine]",IC50,AHR [1],1000 to 1500 nM
same,IC50,AHR [2],< 500 nM
"CC(C)c1csc2c(NCCc3c[nH]c4ccccc34)nc(-c3cncc(F)c3)nc12 [I-3, N-(2-(1H-indol-3-yl)ethyl)-2-(5-fluoropyridin-3-yl)-7-isopropylthieno[3,2-d]pyrimidin-4-amine]",IC50,AHR [1],1000 to 1500 nM
same,IC50,AHR [2],< 500 nM
"CC(C)n1ccc2c(NCCc3c[nH]c4ccccc34)nc(-c3cncc(F)c3)nc21 [I-4, 2-(5-Fluoro-3-pyridyl)-N-[2-(1H-indol-3-yl)ethyl]-7-isopropyl-pyrrolo[2,3-d]pyrimidin-4-amine]",IC50,AHR [1],< 500 nM
same,IC50,AHR [2],< 500 nM
same,Mouse S9 Stability: % Remaining After 60 Minutes,[3],0%
"Fc1cncc(-c2nc(NCCc3c[nH]c4ccccc34)c3ccsc3n2)c1 [I-5, N-(2-(1H-indol-3-yl)ethyl)-2-(5-fluoropyridin-3-yl)thieno[2,3-d]pyrimidin-4-amine]",IC50,AHR [1],> 1500 nM
same,IC50,AHR [2],< 500 nM
CC(C)n1cnc2c(NCCc3c[nH]c4ccccc34)nc(-c3cncc(F)c3)nc21 [I-6],IC50,AHR [1],< 500 nM
same,IC50,AHR [2],< 500 nM
same,Mouse S9 Stability: % Remaining After 60 Minutes,[3],0%
"CC(C)n1cnc2c(NCCc3c[nH]c4cccnc34)nc(-c3cncc(F)c3)nc21 [I-7, 2-(5-Fluoro-3-pyridyl)-9-isopropyl-N-[2-(1H-pyrrolo[3,2-b]pyridin-3-yl)ethyl]purin-6-amine]",IC50,AHR [1],< 500 nM
same,IC50,AHR [2],> 1500 nM
"CC(C)n1cnc2c(NCCc3c[nH]c4cnccc34)nc(-c3cncc(F)c3)nc21 [I-9, 2-(5-Fluoro-3-pyridyl)-9-isopropyl-N-[2-(1H-pyrrolo[2,3-c]pyridin-3-yl)ethyl]purin-6-amine]",IC50,AHR [1],1000 to 1500 nM
same,IC50,AHR [2],500 to 1000 nM
"CC(C)c1ccc2c(NCCc3c[nH]c4ccccc34)nc(-c3cncc(F)c3)nn12 [I-19, N-(2-(1H-Indol-3-yl)ethyl)-2-(5-fluoropyridin-3-yl)-7-isopropylpyrrolo[2,1-f][1,2,4]triazin-4-amine]",IC50,AHR [1],500 to 1000 nM
same,IC50,AHR [2],< 500 nM
"Fc1cncc(-c2cc(NCCc3c[nH]c4ccccc34)n3ncc(Br)c3n2)c1 [I-39, 3-Bromo-5-(5-fluoro-3-pyridyl)-N-[2-(1H-indol-3-yl)ethyl]pyrazolo[1,5-a]pyrimidin-7-amine]",IC50,AHR [2],< 500 nM
same,bioavailability,"[4]; po, 30 mg/kg",17%
same,AUC(0-inf),"[4]; iv, 3 mg/kg",931 ng·h/mL
same,AUC(0-t),"[4]; iv, 3 mg/kg",908 ng·h/mL
same,clearance,"[4]; iv, 3 mg/kg",53.7 mL/min/kg
same,half-life,"[4]; iv, 3 mg/kg",1.31 h
same,Vd,"[4]; iv, 3 mg/kg",3.5 L/kg
same,AUC(0-inf),"[4]; po, 30 mg/kg",1610 ng·h/mL
same,AUC(0-t),"[4]; po, 30 mg/kg",1600 ng·h/mL
same,Cmax,"[4]; po, 30 mg/kg",799 ng/mL
same,half-life,"[4]; po, 30 mg/kg",3.35 h
same,Mouse S9 Stability: % Remaining After 60 Minutes,[3],30%
same,inhibition at 30 mg/kg,Cyp1a1; [5],90%
same,inhibition at 30 mg/kg,"Cyp1a1; 4 h, read-out: Cyp1a1 inhibition, Spleen, 4 h",69%
"CC(C)c1cnn2c(N[C@@H]3CCc4[nH]c5ccccc5c4C3)cc(-c3cncc(F)c3)nc12 [I-75a, (3R)—N-[5-(5-fluoro-3-pyridyl)-3-isopropyl-pyrazolo[1,5-a]pyrimidin-7-yl]-2,3,4,9-tetrahydro-1H-carbazol-3-amine]",IC50,AHR [2],> 1500 nM
same,bioavailability,"[4]; po, 30 mg/kg",51%
same,AUC(0-inf),"[4]; iv, 3 mg/kg",2260 ng·h/mL
same,AUC(0-t),"[4]; iv, 3 mg/kg",2670 ng·h/mL
same,clearance,"[4]; iv, 3 mg/kg",14.4 mL/min/kg
same,half-life,"[4]; iv, 3 mg/kg",13.8 h
same,Vd,"[4]; iv, 3 mg/kg",13.7 L/kg
same,Cmax,"[4]; po, 30 mg/kg",969 ng/mL
same,Tmax,"[4]; po, 30 mg/kg",2 h
same,half-life,"[4]; po, 30 mg/kg",9.8 h
same,Mouse S9 Stability: % Remaining After 60 Minutes,[3],65%
same,inhibition at 30 mg/kg,Cyp1a1; [5],55%
"Fc1cncc(-c2cc(NCCc3c[nH]c4ccccc34)n3nccc3n2)c1 [I-103, 5-(5-Fluoro-3-pyridyl)-N-[2-(1H-indol-3-yl)ethyl]pyrazolo[1,5-a]pyrimidin-7-amine]",IC50,AHR [2],< 500 nM
same,bioavailability,"[4]; po, 30 mg/kg",6%
same,AUC(0-inf),"[4]; iv, 3 mg/kg",1140 ng·h/mL
same,AUC(0-t),"[4]; iv, 3 mg/kg",1140 ng·h/mL
same,clearance,"[4]; iv, 3 mg/kg",43.9 mL/min/kg
same,half-life,"[4]; iv, 3 mg/kg",0.62 h
same,Vd,"[4]; iv, 3 mg/kg",1.4 L/kg
same,AUC(0-inf),"[4]; po, 30 mg/kg",671 ng·h/mL
same,AUC(0-t),"[4]; po, 30 mg/kg",649 ng·h/mL
same,Cmax,"[4]; po, 30 mg/kg",713 ng/mL
same,Tmax,"[4]; po, 30 mg/kg",0.2 h
same,half-life,"[4]; po, 30 mg/kg",2.15 h
same,Mouse S9 Stability: % Remaining After 60 Minutes,[3],7%
same,inhibition at 30 mg/kg,Cyp1a1; [5],94%
same,inhibition at 30 mg/kg,"Cyp1a1; 10 h, read-out: Cyp1a1 inhibition, Liver, 10 h",0%
